Laboratory results taken from ChEMBL document CHEMBL4402598, “Design and Synthesis of Bitopic 2-Phenylcyclopropylmethylamine (PCPMA) Derivatives as Selective Dopamine D3 Receptor Ligands” (J Med Chem, 2020).

Columns and labels:
D(1A) dopamine receptor = D(1A) dopamine receptor (Homo sapiens, UniProt P21728); experiment: Displacement of [3H]-SCH23390 from recombinant human D1 receptor transiently expressed in HEKT cell membranes measured after 90 mins by microbeta scintillation counting method
D(2) dopamine receptor = D(2) dopamine receptor (Homo sapiens, UniProt P14416); experiment: Displacement of [3H]-N-methylspiperone from recombinant human D2 receptor stably expressed in fibroblast cell membranes measured after 90 mins by microbeta scintillation counting method
D(2) dopamine receptor, sequence (P14416 whole entry): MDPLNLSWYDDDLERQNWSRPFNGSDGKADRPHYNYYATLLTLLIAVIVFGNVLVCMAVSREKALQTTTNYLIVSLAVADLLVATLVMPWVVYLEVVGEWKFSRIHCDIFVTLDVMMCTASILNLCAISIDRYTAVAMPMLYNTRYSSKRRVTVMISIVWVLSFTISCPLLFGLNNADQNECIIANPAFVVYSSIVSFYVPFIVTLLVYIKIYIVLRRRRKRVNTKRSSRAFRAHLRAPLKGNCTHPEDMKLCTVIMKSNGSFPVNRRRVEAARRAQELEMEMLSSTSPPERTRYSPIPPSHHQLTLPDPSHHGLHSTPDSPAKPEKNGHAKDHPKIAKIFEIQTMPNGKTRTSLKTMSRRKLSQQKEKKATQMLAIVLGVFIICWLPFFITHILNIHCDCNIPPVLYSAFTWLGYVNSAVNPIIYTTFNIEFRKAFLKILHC

D(3) dopamine receptor = D(3) dopamine receptor (Homo sapiens, UniProt P35462); experiment: Displacement of [3H]-N-methylspiperone from recombinant human D3 receptor (unknown origin) measured after 90 mins by microbeta scintillation counting method
D(3) dopamine receptor, sequence (P35462 whole entry): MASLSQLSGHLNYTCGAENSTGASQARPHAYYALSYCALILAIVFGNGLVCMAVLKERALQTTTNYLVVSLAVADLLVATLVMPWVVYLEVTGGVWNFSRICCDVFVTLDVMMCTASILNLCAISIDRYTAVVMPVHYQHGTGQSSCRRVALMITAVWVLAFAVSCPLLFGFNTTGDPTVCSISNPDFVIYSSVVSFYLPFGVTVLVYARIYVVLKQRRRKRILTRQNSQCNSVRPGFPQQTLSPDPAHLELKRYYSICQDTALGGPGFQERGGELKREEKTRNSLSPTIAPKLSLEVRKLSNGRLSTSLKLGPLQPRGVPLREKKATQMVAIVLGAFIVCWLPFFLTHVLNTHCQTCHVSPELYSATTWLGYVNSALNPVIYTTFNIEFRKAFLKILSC

D(4) dopamine receptor = target: T1, D(4) dopamine receptor (Homo sapiens, UniProt P21917); experiment: Displacement of [3H]-N-methylspiperone from recombinant human D4 receptor stably expressed in HEK cell membranes measured after 90 mins by microbeta scintillation counting method
T1 sequence (P21917 whole entry): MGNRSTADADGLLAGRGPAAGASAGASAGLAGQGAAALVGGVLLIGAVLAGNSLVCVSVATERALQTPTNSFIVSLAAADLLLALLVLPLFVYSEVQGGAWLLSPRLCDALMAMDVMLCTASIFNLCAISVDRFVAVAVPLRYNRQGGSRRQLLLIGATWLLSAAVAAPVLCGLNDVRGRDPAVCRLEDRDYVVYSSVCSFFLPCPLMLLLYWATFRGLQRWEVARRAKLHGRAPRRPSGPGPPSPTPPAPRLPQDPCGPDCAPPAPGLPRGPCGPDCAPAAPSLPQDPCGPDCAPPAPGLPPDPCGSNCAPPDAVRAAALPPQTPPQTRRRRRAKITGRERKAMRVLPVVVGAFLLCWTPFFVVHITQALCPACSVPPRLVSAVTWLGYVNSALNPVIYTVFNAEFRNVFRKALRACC

D(1B) dopamine receptor = D(1B) dopamine receptor (Homo sapiens, UniProt P21918); experiment: Displacement of [3H]-SCH23390 from recombinant human D5 receptor transiently expressed in HEKT cell membranes measured after 90 mins by microbeta scintillation counting method
D(1B) dopamine receptor, sequence (P21918 whole entry): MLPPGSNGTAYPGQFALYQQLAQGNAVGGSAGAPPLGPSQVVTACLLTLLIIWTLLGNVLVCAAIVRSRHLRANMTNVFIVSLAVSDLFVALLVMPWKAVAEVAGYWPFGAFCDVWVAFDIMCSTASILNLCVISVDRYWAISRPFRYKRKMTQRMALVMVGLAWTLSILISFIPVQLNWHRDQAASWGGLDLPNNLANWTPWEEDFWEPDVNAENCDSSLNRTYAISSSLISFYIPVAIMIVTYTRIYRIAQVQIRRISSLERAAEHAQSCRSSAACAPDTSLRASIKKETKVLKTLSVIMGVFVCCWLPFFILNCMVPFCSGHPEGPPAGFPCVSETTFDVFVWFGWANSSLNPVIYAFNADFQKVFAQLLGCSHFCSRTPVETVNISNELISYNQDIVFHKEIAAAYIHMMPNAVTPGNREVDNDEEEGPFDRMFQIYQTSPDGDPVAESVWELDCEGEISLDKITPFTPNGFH

[1] = target: T2, 5-hydroxytryptamine receptor 2C (Homo sapiens, UniProt P28335); experiment: Displacement of [3H]-Mesulergine from recombinant human 5HT2C receptor expressed in HEKT cell membranes measured after 90 mins by microbeta scintillation counting method
T2 sequence (P28335 whole entry): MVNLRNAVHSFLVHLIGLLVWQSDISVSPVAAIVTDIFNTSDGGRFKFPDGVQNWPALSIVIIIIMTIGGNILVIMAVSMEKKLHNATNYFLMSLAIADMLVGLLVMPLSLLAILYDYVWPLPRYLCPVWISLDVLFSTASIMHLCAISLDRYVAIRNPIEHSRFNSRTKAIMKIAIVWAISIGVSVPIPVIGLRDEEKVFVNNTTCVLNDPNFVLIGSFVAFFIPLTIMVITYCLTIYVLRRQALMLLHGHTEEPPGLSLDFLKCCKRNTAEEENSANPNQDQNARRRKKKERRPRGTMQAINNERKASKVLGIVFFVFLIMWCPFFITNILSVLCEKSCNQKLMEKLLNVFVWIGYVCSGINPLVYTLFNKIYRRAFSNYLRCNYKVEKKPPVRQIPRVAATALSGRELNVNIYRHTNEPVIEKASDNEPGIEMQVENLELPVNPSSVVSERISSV

D(1A) dopamine receptor, sequence (P21728 whole entry): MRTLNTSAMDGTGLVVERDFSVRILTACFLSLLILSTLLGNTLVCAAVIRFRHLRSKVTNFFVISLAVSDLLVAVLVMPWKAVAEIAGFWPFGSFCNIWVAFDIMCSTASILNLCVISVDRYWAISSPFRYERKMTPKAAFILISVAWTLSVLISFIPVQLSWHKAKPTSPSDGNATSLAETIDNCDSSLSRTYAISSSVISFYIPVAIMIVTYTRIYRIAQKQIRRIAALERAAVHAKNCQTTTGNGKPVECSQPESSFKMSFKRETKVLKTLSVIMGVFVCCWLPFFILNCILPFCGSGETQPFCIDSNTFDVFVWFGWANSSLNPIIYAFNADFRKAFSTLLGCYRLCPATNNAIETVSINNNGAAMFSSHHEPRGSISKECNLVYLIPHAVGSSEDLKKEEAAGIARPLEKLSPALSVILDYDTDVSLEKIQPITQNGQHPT

Row | SMILES | Ki (D(1A) dopamine receptor) [nM] | Ki (D(2) dopamine receptor) [nM] | Ki (D(3) dopamine receptor) [nM] | Ki (D(4) dopamine receptor) [nM] | Ki (D(1B) dopamine receptor) [µM] | Ki [1] [nM]
1 | CCCN(CCCCNC(=O)c1ccc2ccccc2c1)CC1CC1c1cccc(F)c1 (stereo not given) | 1310 | 4820 | 26.7 | 1300 | > 5 | 165
2 | Cn1c(SCCCNCC2CC2c2cc(F)ccc2OCCF)nnc1-c1ccccc1 (stereo not given) | 369 | 1500 | 525 | 962 | 1.08 | –
3 | CCCN(CCCCNC(=O)c1cc2ccccc2[nH]1)CC1CC1c1ccc(C(F)(F)F)cc1 (stereo not given) | 1280 | > 5000 | 33.1 | 2070 | 8.19 | 1310
4 | COc1ccc(F)cc1C1CC1CN(CCCSc1nnc(-c2ccccc2)n1C)CC1CC1 (stereo not given) | 1080 | > 5000 | 64.6 | 292 | 1.2 | 126
5 | CCN(CCCCNC(=O)c1ccc2ccccc2c1)CC1CC1c1cc(Cl)ccc1OC (stereo not given) | 1980 | 408 | 23.4 | 553 | 0.571 | 49
6 | CCN(CCCCNC(=O)c1cc2ccccc2[nH]1)CC1CC1c1cc(F)ccc1OC (stereo not given) | 1080 | 380 | 23.4 | 220 | > 5 | 49
7 | COc1ccc(F)cc1C1CC1CN(CCCSc1nnc(-c2ccccc2)n1C)C(C)C (stereo not given) | > 5000 | 513 | 105 | 326 | > 5 | 495
8 | CCCN(CCCCNC(=O)c1cc2ccccc2[nH]1)CC1CC1c1ccc(Cl)cc1 (stereo not given) | 649 | 3160 | 25.7 | 510 | 9.29 | 137
9 | CCCN(CCCCNC(=O)c1ccc2ccccc2c1)CC1CC1c1cccc(Cl)c1 (stereo not given) | 940 | 4010 | 15.5 | 1320 | 8.67 | 136
10 | CCCN(CCCCNC(=O)c1cc2ccccc2[nH]1)CC1CC1c1cccc(Cl)c1 (stereo not given) | 992 | 3490 | 11.1 | 878 | > 5 | 132
11 | CCCN(CCCCNC(=O)c1ccc(-c2ccccn2)cc1)CC1CC1c1cc(F)ccc1OC (racemic) | 1760 | 3140 | – | 1140 | > 5 | 53
12 | CCN(CCCSc1nnc(-c2ccccc2)n1C)CC1CC1c1cc(F)ccc1OCCF (stereo not given) | 584 | 845 | 113 | 179 | 2 | –
13 | CCCN(CCCCNC(=O)c1ccc2ccccc2c1)CC1CC1c1ccc(Cl)cc1 (stereo not given) | 509 | 4610 | 32.6 | 1590 | 6.11 | 179
14 | CCOc1ccc(F)cc1C1CC1CN(C)CCCSc1nnc(-c2ccccc2)n1C (stereo not given) | 1120 | > 5000 | 550 | 989 | > 5 | –
15 | CCCN(CCCCNC(=O)c1ccc2ccccc2c1)CC1CC1c1cccc(Cl)c1Cl (racemic) | 891 | 2100 | – | 1340 | 4.02 | 123
16 | CCCN(CCCCNC(=O)c1ccc2ccccc2c1)CC1CC1c1ccc(F)cc1 (stereo not given) | 992 | 5620 | 55.8 | 2170 | > 5 | 238
17 | CCCN(CCCCNC(=O)c1cc2ccccc2[nH]1)CC1CC1c1cc(Cl)ccc1OC (stereo not given) | 818 | 1420 | 11.5 | 575 | 4.23 | 85.1
18 | CCCN(CCCCNC(=O)c1ccc2ccccc2c1)CC1CC1c1cc(F)ccc1OC (stereo not given) | 967 | 1080 | 14.5 | 844 | 2.2 | 63.1
19 | CCCN(CCCCNC(=O)c1ccc2ccccc2c1)CC1CC1c1cc(Cl)ccc1OC (stereo not given) | 930 | 1120 | 26.9 | 945 | 1.1 | 85
20 | COc1ccc(F)cc1C1CC1CN(C)CCCSc1nnc(-c2ccccc2)n1C (stereo not given) | 794 | 324 | 84.5 | 85.1 | 1 | –

Row | SMILES | Ki (D(1A) dopamine receptor) [nM] | Ki (D(2) dopamine receptor) [nM] | Ki (D(3) dopamine receptor) [nM] | Ki (D(4) dopamine receptor) [nM] | Ki (D(1B) dopamine receptor) [µM] | Ki [1] [nM]
21 | CCCN(CCCCNC(=O)c1ccc(-c2ccccn2)cc1)CC1CC1c1cccc(Cl)c1 (stereo not given) | 832 | > 5000 | 26.5 | 2330 | 5.58 | 898
22 | CN(CCCSc1nnc(-c2ccccc2)n1C)CC1CC1c1cc(F)ccc1OCCF (stereo not given) | 1470 | 2440 | 562 | 977 | 2.15 | –
23 | CCN(CCCSc1nnc(-c2ccccc2)n1C)CC1CC1c1cc(Cl)ccc1OC (stereo not given) | 1510 | 238 | 31.6 | 241 | > 5 | 203
24 | CCCN(CCCCNC(=O)c1ccc(-c2ccccn2)cc1)CC1CC1c1ccc(Cl)cc1 (stereo not given) | 1310 | > 5000 | 17.6 | 1410 | 8.84 | 284
25 | CCN(CCCCNC(=O)c1ccc2ccccc2c1)CC1CC1c1cc(F)ccc1OC (stereo not given) | 986 | 407 | 15 | 385 | 1.72 | 57.5
26 | CCCN(CCCSc1nnc(-c2ccccc2)n1C)CC1CC1c1cc(F)ccc1OC (stereo not given) | 1670 | 1160 | 87.1 | 85.8 | > 5 | 412
27 | CCCN(CCCCNC(=O)c1ccc(-c2ccccn2)cc1)CC1CC1c1ccc(F)cc1 (stereo not given) | 3630 | > 5000 | 106 | 2880 | > 5 | 2170
28 | CCCN(CCCCNC(=O)c1ccc(-c2ccccn2)cc1)CC1CC1c1cc(Cl)ccc1OC (stereo not given) | > 5000 | 2100 | 39.4 | 1830 | > 5 | 136
29 | CCCN(CCCCNC(=O)c1ccc(-c2ccccn2)cc1)CC1CC1c1ccc(C(F)(F)F)cc1 (stereo not given) | 1420 | > 5000 | 23.4 | 2170 | 7.7 | 2360
30 | CCCN(CCCCNC(=O)c1cc2ccccc2[nH]1)CC1CC1c1cc(F)ccc1OC (stereo not given) | 871 | 507 | 11.2 | 376 | 0.789 | 68
31 | COc1ccc(Cl)cc1C1CC1CN(CCCSc1nnc(-c2ccccc2)n1C)CC1CC1 (stereo not given) | 636 | 216 | 23.7 | 163 | > 5 | 274
32 | CCCN(CCCCNC(=O)c1cc2ccccc2[nH]1)CC1CC1c1cccc(F)c1 (stereo not given) | 1100 | 3490 | 18.8 | 671 | > 5 | 106
33 | CCCN(CCCCNC(=O)c1cc2ccccc2[nH]1)CC1CC1c1cccc(Cl)c1Cl (racemic) | 891 | 1500 | – | 1130 | 3.5 | 105
34 | CCCN(CCCCNC(=O)c1cc2ccccc2[nH]1)CC1CC1c1ccc(F)cc1 (stereo not given) | 1460 | 5930 | 45.7 | 1610 | 10.5 | 219
35 | CCOc1ccc(F)cc1C1CC1CN(CC)CCCSc1nnc(-c2ccccc2)n1C (stereo not given) | 1150 | 380 | 55 | 101 | 1.58 | –
36 | CCN(CCCSc1nnc(-c2ccccc2)n1C)CC1CC1c1cc(F)ccc1OC (stereo not given) | 1720 | 275 | 44 | 30 | 1.85 | –
37 | CCCN(CCCCNC(=O)c1ccc(-c2ccccn2)cc1)CC1CC1c1cccc(Cl)c1Cl (racemic) | 1650 | – | – | 2010 | > 5 | 97.7
38 | COc1ccc(F)cc1C1CC1CNCCCSc1nnc(-c2ccccc2)n1C (stereo not given) | 631 | 253 | 89.8 | 133 | 0.926 | –
39 | CCOc1ccc(F)cc1C1CC1CNCCCSc1nnc(-c2ccccc2)n1C (stereo not given) | 295 | 661 | 219 | 501 | 0.589 | –
